# Reference: patent US9737493B2, “Compositions and methods for modulating DNMT1 inhibitor activity” (University of Louisville Research Foundation, Inc., priority 2012, dated 2017)
# What was measured:
# Format in all cases: cell-based, human
# [1] = test system: U937 cells; assay: Carboxy-H2DCFDA ROS detection, flow cytometry; settings: U937, 1 μM, 8 h
# Experimental: (§1) FIG. 7: XB05 Induces ROS. (A) Cells were treated with either vehicle, tert-butyl hydrogen peroxide (TBHP, 100 μM, 3 h) or XB05 (8 h with 1 μM for U937 and Hs27, or 2 μM for A549), then stained with carboxy-H2DCFDA and PI for analysis by flow cytometry. Histograms illustrate representative data and bar graphs show the increase (over vehicle control) in the percentage of PI-negative (viable) cells with positive DCF fluorescence in each sample. Bars represent the mean+/−SEM from three independent experiments. […] (B) Cells were treated with XB05 as described in part A. As a positive control for superoxide production, cells were treated with Antimycin A (10 μM) for 1 h. Cells were harvested and subjected to MitoSOX™ Red staining for analysis by flow cytometry as described in Methods. Histograms illustrate representative data and bar graphs show the mean+/−SEM for three independent experiments.
# (§2) Flow Cytometric Assays. Analyses were performed using a FACScalibur flow cytometer (BD Biosciences, Mountain View, Calif.) and FlowJo software (Tree Star, Inc., Ashland, Oreg.). Cells were treated as indicated in the figures and in the Brief Description of the Drawings. Cells were harvested by using TrypLE Cell Dissociation Reagent (Life Technologies). For cell death analyses, cells (adherent and detached cells) were stained with annexin-V-FITC and propidium iodide (PI) using the Apoptosis Detection Kit (BD Biosciences, San Jose, Calif.), according to the manufacturer's instructions. For cell-cycle distribution, cells were fixed, and stained with PI using the Cycle Test Plus kit (Becton Dickinson, Franklin Lakes, N.J.). For detection of γ-H2AX, cells were washed with PBS and fixed in 4% paraformaldehyde in PBS for 10 min at 37° C. Cells were then permeabilized in 90% methanol for 30 min on ice, blocked in 2% BSA (w/v in PBS) for 1 h, and incubated with γ-H2AX antibody or rabbit IgG isotype control (Santa Cruz, sc-2027) (0.3 μg/mL in 1% BSA) for 1 h. […] Cells were then washed twice with PBS, re-suspended at a density of 1×10^6 cells/mL in PBS and analyzed by flow cytometry.
# [2] = test system: A549 cells; assay: Carboxy-H2DCFDA ROS detection, flow cytometry; settings: A549, 2 μM, 8 h
# Experimental: as §1, §2
# [3] = test system: Hs27 cells; assay: Carboxy-H2DCFDA ROS detection, flow cytometry; settings: Hs27, 1 μM, 8 h
# Experimental: as §1, §2
# [4] = test system: U937 myeloid leukemia cells; assay: MTT cell proliferation assay
# Experimental: (§3) Cell Proliferation Assays. The antiproliferative activity of XB05 was tested using a previously published 3-(4,5-dimethylthiazol-2-yl)-2,5-diphenyltetrazolium bromide (MTT) assay protocol (Girvan et al., “AGRO100 inhibits activation of nuclear factor-kappaB (NF-kappaB) by forming a complex with NF-kappaB essential modulator (NEMO) and nucleolin” Molecular Cancer Therapeutics (2006) Vol. 5, No. 7, pp. 1790-1799). Briefly, cells were seeded in quadruplicate wells in 96-well plates and allowed to adhere overnight. […] Plates were incubated with XB05 for 72 h, during which the cell culture medium was not changed. Cell viability was determined and the background corresponding to medium alone (no cells) was subtracted. Data were analyzed as described in the Brief Description of the Drawings.
# (§4) XB05 has Cancer-Selective Antiproliferative Activity. XB05 was tested to determine its antiproliferative activity in a variety of human cell lines that are derived from malignant tissues or from non-malignant (immortalized but not transformed) cells and listed in FIG. 1B. As described in Materials and Methods, cells were treated with varying concentrations of XB05 for 72 h and evaluated using the MTT cell proliferation assay.
# [5] = test system: A549 non-small cell lung cancer cells; assay: MTT cell proliferation assay; settings: A549, MTT 72 h
# Experimental: as §3, §4
# [6] = test system: Hs27 non-malignant skin fibroblasts; assay: MTT cell proliferation assay; settings: Hs27, MTT 72 h
# Experimental: as §3, §4
# [7] = test system: U937 cells; assay: Trypan blue exclusion assay; settings: U937, 1 μM, 72 h
# Experimental: (§5) FIG. 3: XB05 Induces Apoptotic and Nonapoptotic Cell Death in Malignant Cell Lines. (A) Trypan blue exclusion assay for three human cell lines following treatment with XB05 for 72 h at the concentrations indicated. Data points represent the mean+/−SEM for three independent experiments. (B) Representative phase contrast microscopy images of cells treated with vehicle (72 h), XB05 (72 h with 1 μM for U937 and Hs27, or 2 μM for A549), or 6 μg/mL camptothecin (U937 for 6 h, A549 and Hs27 for 48 h). Cells undergoing apoptotic (black arrows) or non-apoptotic (white arrows) cell death are indicated. (C) Whole cell extracts from cells treated with vehicle, camptothecin, or XB05, as described in part B were western blotted for biochemical markers of apoptosis and GAPDH (loading control). Apoptosis is indicated by cleavage of full-length PARP-1 (116 kDa) to an 89 kDa fragment, and by appearance of bands (17 kDa, 19 kDa) recognized by an antibody specific to cleaved (activated) forms of caspase-3. (D) Flow cytometric analysis of annexin V-FITC/propidium Iodide (PI) staining for malignant cells treated with vehicle, camptothecin or XB05 as described in part B, in the presence or absence of the pan-caspase inhibitor Z-VAD-fmk (100 μM).
# (§6) After 72 h, cells were trypsinized (in the case of adherent cells), stained with trypan blue solution (0.4%) (BioRad, Hercules Calif.) and cell number and percent viability determined on a TC10 automated cell counter (BioRad) using triplicate measurements for each sample. Phase contrast microscopy images were obtained on an EVOSfI digital inverted microscope (Advanced Microscopy Group, Bothell, Wash.).
# [8] = test system: A549 cells; assay: Trypan blue exclusion assay; settings: A549, 2 μM, 72 h
# Experimental: as §5, §6
# [9] = test system: Hs27 cells; assay: Trypan blue exclusion assay; settings: Hs27, 72 h
# Experimental: as §5, §6
structure (smiles),measurement,setting,value
CCCCCC(O)C#CC(F)(F)Br (stereo not shown) [XB05],levels of ROS (DCF-positive viable cells),[1],elevated
same,levels of ROS (DCF-positive viable cells),[2],elevated
same,levels of ROS (DCF-positive viable cells),[3],elevated
same,GI50,"[4]; Homo sapiens, U-937, U937, 72 h",< 500 nM
same,sensitivity to XB05,"[4]; U937, MTT 72 h",high sensitivity
same,sensitivity to XB05,[5],moderate sensitivity
same,sensitivity to XB05,[6],low sensitivity
same,cell death (trypan blue exclusion),[7],robust cell death
same,cell death (trypan blue exclusion),[8],modest cell death
same,cell death (trypan blue exclusion),[9],lowest levels of cell death
